Experimental data as given in patent publication US20030017483A1, “Modulation of molecular interaction sites on RNA and other biomolecules” (priority 1998, published 2003).
Values after ≈ are worked out from the molar mass of the structure shown. Read-outs that look alike come from different tables or passages of the source.

Assays:
[1] = system: luciferase mRNA (control luc+9); experiment: wheat germ lysate translation of control luciferase mRNA; format: biochemical; details: control mRNA without TAR
Excerpt: It is believed that stabilization of mRNA structures near the 5′-cap also could be effected by specific “small” molecules, and that such binding would reduce the translational efficiency of the mRNA. To test this hypothesis, a plasmid was constructed containing the luciferase message behind a 5′-UTR containing a 27-mer RNA construct of the HIV TAR stem-loop bulge whose structure had been determined by NMR.

[2] = target: luciferase mRNA containing the TAR RNA structure in the 5′-UTR; experiment: wheat germ lysate translation of luciferase mRNA containing TAR RNA structure; format: biochemical, HIV; details: luciferase mRNA with TAR RNA structure in the 5′-UTR, read-out: concentration reducing translation by 50%
Excerpt: It is believed that stabilization of mRNA structures near the 5′-cap also could be effected by specific “small” molecules, and that such binding would reduce the translational efficiency of the mRNA. To test this hypothesis, a plasmid was constructed containing the luciferase message behind a 5′-UTR containing a 27-mer RNA construct of the HIV TAR stem-loop bulge whose structure had been determined by NMR. The resulting mRNA could be expressed and capped in a wheat germ lysate translation system supplemented with T7 polymerase following addition of m^7G to the lysate (see, FIG. 38A). Insertion of a 9-base leader before the TAR structure (HIVluc+9) enhanced the translational efficiency, presumably by allowing the pre-initiation complex to form. The helicase activity associated with the pre-initiation complex can transiently melt out the TAR RNA structure, and the message is translated (see, FIG. 38A).

[3] = system: TAR RNA interaction with tat peptide; experiment: disruption of TAR RNA interaction with tat peptide; format: binding, HIV
TAR = details: in words, FIG. 36
[4] = cited from earlier work
[5] = system: 23S rRNA fragment / L11 protein fragment; experiment: L11/thiostrepton SPA assay; format: binding; details: positive control, RNA under destabilizing conditions
Excerpt: The mode of action of thiostrepton appears to be to stabilize a region of the 23S rRNA and by doing so prevent a structural transition in the L11 protein. Among the many assays that look at RNA/protein interactions, an SPA assay has been designed to look for small molecules that could be effective as thiostrepton ‘like’ agents. This assay uses a radiolabeled small fragment of the 23S rRNA, a biotinylated 75 amino acid fragment of the L11 protein that contains the 23S rRNA binding domain and thiostrepton. The folding conditions of the secondary and tertiary structures of the 23S rRNA fragment have been examined as have the binding conditions of the L11 fragment to the 23S rRNA. The L11-thiostrepton assay has been optimized so that the 23S rRNA fragment is in an unfolded state prior to the addition of compounds. Addition of the L11 fragment to this unfolded RNA results in no detectable binding interaction. The high throughput assay is run by mixing the 23S rRNA fragment, under destabilizing conditions, with compounds of interest, incubating this mixture, and then adding the L11 fragment. Streptavidin-coated SPA beads are added for binding detection. Thiostrepton is used as a positive control.

E. coli = experiment: high throughput screening assay for antibacterial activity; format: cell-based; details: Escherichia coli; crude compounds, against E. coli; read-out: minimum inhibitory concentrations (MIC's)
Excerpt: This activity was verified by manual solution synthesis of analytically pure material as described in Example 6 above, which had identical activity.

luciferase reporter = experiment: transcription/translation assay based on expression of a luciferase plasmid; format: biochemical
Experimental: The compounds are screened for binding affinity using MASS or conventional high-throughput functional screens. The best scoring compounds from docking a 256-member library against the 16S A-site ribosomal RNA structure are shown in the table below. The MASS assay was performed with the 27-mer model RNA sequence of the 16S A-site whose NMR structure has been determined. The transcription/translation assay was based on expression of a luciferase plasmid.

[6] = target: 27-mer RNA containing the A-site of the 16S rRNA; details: cited from earlier work
[7] = target: 27-mer model RNA sequence of the 16S A-site; experiment: MASS assay (mass spectrometry binding affinity); details: 27-mer model RNA of the 16S A-site
Excerpt: One mass spectrometric method which is particularly useful when combined with the techniques of the foregoing commonly owned inventions provides the determination of specificity and affinity of ligands to RNA targets. MASS (multi target affinity/specificity screening) techniques can provide high throughput screening methods to analyze the specificity and affinity of ligands to molecular interaction sites of nucleic acids, especially RNA. […]
Binding site information can be obtained by comparing the gas phase fragmentation patterns of the free and complexed target while relative binding constants are derived from the relative abundance of complexes using a complex with a known Kd as an internal standard. With knowledge of the specificity and affinity of ligands to the molecular interaction site of a target RNA, the desired lead or ultimate compound for modulation of the RNA can be determined.
The compounds are screened for binding affinity using MASS or conventional high-throughput functional screens. […] The MASS assay was performed with the 27-mer model RNA sequence of the 16S A-site whose NMR structure has been determined. […]

Compound: CNc1ccc(NCCO)c2c1C(=O)c1ccccc1C2=O [ACD 00001199]
- inhibition of translation of the luciferase mRNA [1]: some inhibition of translation at very high concentrations
- IC50 [2]: 50000 nM
- concentration at which the interaction of TAR RNA with tat peptide is disrupted [3]: 1 µM
- IC50 values (TAR): low

Compound: C=C(NC(=O)C(=C)NC(=O)c1csc(C2=N[C@@H]3c4csc(n4)[C@H]4NC(=O)c5csc(n5)[C@H]([C@](C)(O)[C@@H](C)O)NC(=O)[C@H]5CSC(=N5)/C(=C/C)NC(=O)[C@H]([C@@H](C)O)NC(=O)c5csc(n5)[C@]3(CC2)NC(=O)[C@H](C)NC(=O)C(=C)NC(=O)[C@H](C)NC(=O)[C@H]([C@@H](C)CC)N[C@@H]2C=Cc3c([C@H](C)O)cc(nc3[C@H]2O)C(=O)O[C@@H]4C)n1)C(N)=O [thiostrepton]
- solubility [4]: very poor solubility
- L11 fragment binding to 23S rRNA fragment (SPA signal) [5]: allows the L11 fragment to bind leading to the generation of a signal

Compound: O=C(NO)[C@@H](Cc1ccc2ccccc2c1)NS(=O)(=O)c1ccc2ccccc2c1 [Compound 5-n-ii, (2R)-3-(2-naphthyl)-2-((2-naphthylsulfonyl)amino)propanehydroxamic Acid]
- MIC (E. coli): 0.7 to 1.5 µM (≈ 0.294 to 0.631 µg/mL)

Compound: NC[C@@H]1O[C@H](O[C@H]2[C@@H](O)[C@H](O[C@@H]3[C@@H](O)[C@H](N)C[C@H](N)[C@H]3O[C@H]3O[C@H](CO)[C@@H](O)[C@H](O)[C@H]3N)O[C@@H]2CO)[C@H](N)[C@@H](O)[C@@H]1O [Paromomycin]
- Activity: Inhibition of protein synthesis in transcription/translation assay for luciferase reporter (luciferase reporter): 0.3 µM
- Kd ([6]; 27-mer RNA containing the A-site of the 16S rRNA, known value, read-out: Kd, binding to the unpaired adenosine residues): 200 nM
- Kd ([6]; standard, known from other experiments or literature, read-out: binding affinity for a test 27-mer RNA): ~1000 nM
- Kd [7]: 500 nM

Compound: O=C(NO)[C@@H](Cc1ccc2ccccc2c1)NS(=O)(=O)c1ccc(Br)cc1 [Compound 5-n-vi, (2R)-2-(((4-bromophenyl)sulfonyl)amino)-3-(2-naphthyl)propanehydroxamic Acid]
- MIC (E. coli): 3 to 6 µM (≈ 1.35 to 2.7 µg/mL)
